# Entries after “also recorded” stand apart in the source; their conditions may differ.
# Key:
# [1] = tested on: mouse primary cortical neurons; experiment: NADPH/NADP upon excitotoxic stimuli; assay type: cell-based; settings: glutamate 100 μM 10 minutes, then inhibitor 0.01 μM 24 hours
# Procedure: Neurons were then washed and further incubated in culture medium with the PFKFB3 inhibitors for 24 hours. A colorimetric NADP/NADPH assay kit (Abcam) was used. Cells were resuspended in 500 μl of NADP/NADPH extraction buffer, vortexed and centrifuged at 14,000 rpm for 5 minutes to remove insoluble material. The supernatant was used for NADPH +plus NADP+ measurement. NADPH was determined in 200 μl of the supernatant, after […] 60° C. for 30 minutes to decompose NADP+. Actual NADP and NADPH+ concentrations were calculated by extrapolating values to a NADPH standard curve (0-100 pmol/well).
# [2] = tested on: neurons transfected with PFK1-M; experiment: Excitotoxic insult in neurons overexpressing PFK1-M; assay type: cell-based, mouse; settings: PFK1-M (muscle isoform) overexpression
# Procedure: To address whether the protection caused by PFKFB3 inhibitors was a consequence of hampering the glycolytic activation (FIG. 4B), we aimed to investigate whether the overexpression of the glycolytic enzyme, PFK1-muscle isoform, could revert PFKFB3 inhibitors-mediated neuroprotection. […] Accordingly, neurons were first transfected with the full-length cDNA encoding for PFK1-M, and then subjected to the excitotoxic insult. Cells were transfected with 1.6 μg/mL of a pIRES2-EGFP plasmid vector (Invitrogen) harbouring a full-length cDNA coding for the human muscle 6-phosphofructo-1-kinase muscle isoform (PFK1-M) (accession number, NM_000289.1) using Lipofectamine LTX-PLUS Reagent (Life Technologies) according with manufacturer's protocol. Transfections were performed 24 hours before cells collection. Control cells were transfected with the empty vector. Cells were treated with excitotoxic stimuli as described above.
# [3] = tested on: neurons from Cln7 knock out (KO) mice; experiment: In vitro model of Batten disease, glycolytic flux; assay type: cell-based, mouse; settings: 10 nM, 24 hours
# Procedure: Primary cultures of C57BL/6J WT and Cln7Δex2 mice cortical neurons were prepared from fetal animals of 14.5 days of gestation, seeded at 1.8·10^5 cells/cm2 in plastic plates coated with poly-D-lysine […] and incubated in Neurobasal (Life Technologies) supplemented with 2 mM glutamine, 5 mM of glucose, 0.25 mM pyruvate and 2% B27 supplement (Life Technologies). Cells were incubated at 37° C. in a humidified 5% CO2-containing atmosphere. At 72 hours after plating, medium was replaced using Neurobasal (Life Technologies) supplemented with 2 mM glutamine, 5 mM glucose, 0.25 mM pyruvate and 2% B27 supplement (Life Technologies) minus antioxidants (MAO; i.e., lacking vitamin E, vitamin E acetate, superoxide dismutase, catalase, and glutathione). Six days after the plating medium was replaced again. Cells were used at day 9.
# Glycolytic flux was measured in 8 cm2 flasks of adherent cells at 60-70% confluence containing a central microcentrifuge tube with 1 ml H2O for 3H2O equilibration. […]. […] Glycolytic flux was measured by assaying the rate of 3H2O production from [3-3H]glucose by incubating cells with 5μ Ci D-[3-3H]glucose in KRPG buffer per flask for 120 min, as previously described [Vicente-Gutierrez, C. et al. Astrocytic mitochondrial ROS modulate brain metabolism and mouse behavior. […] The 3H2O was then measured by liquid scintillation counting (Tri-Carb 4810 TR, PerkinElmer). […]
# [4] = tested on: Caenorhabditis elegans N2; experiment: C. elegans life span in 96 well microtiter plates; assay type: in vivo; settings: strain N2
# Excerpt: The test of AZ67 compound had been made according to protocol disclosed in Solis, G. M., Petrascheck, M. Measuring Caenorhabditis elegans
smiles,measurement,setting,value
"Cc1noc(C)c1Cn1cc(C#N)c2cc(Oc3ccc(NC(=O)[C@@H]4CCCN4)cc3)ccc21 [AZ67, (2S)-N-[4-({3-cyano-1-[(3,5-dimethyl-1,2-oxazol-4-yl)methyl]-1H-indol-5-yl}oxy)phenyl]pyrrolidine-2-carboxamide]",NADPH oxidation / NADPH/NADP ratio,[1],prevented; also recorded: restore NADPH/NADP ratio
same,neuroprotection under PFK1-M overexpression,[2],abolish the neuroprotection; also recorded: abrogates the neuroprotective effect
same,rate of glycolysis (glycolytic flux),[3],reduce the excessive glycolysis to normal levels
same,% LS change,"[4]; Conc 10 uM, set AI",−8%
same,Lifespan,"[4]; Conc 10 uM, set AI",18.81 days
same,% LS change,"[4]; Conc 100 uM, set AI",24%
same,Lifespan,"[4]; Conc 100 uM, set AI",25.45 days
same,% LS change,"[4]; conc 10, set Aib",15%
same,Lifespan,"[4]; conc 10, set Aib",25.98 days
same,% LS change,"[4]; conc 100, set Aib",22%
same,Lifespan,"[4]; conc 100, set Aib",27.47 days
